Consider 19 compounds from US20070037253A1, “Methods and compositions for treatment of arthritis and cancer” (priority 2003, published 2007).

Broadly, the IC50 is the concentration needed to halve the response being measured. The term inhibition denotes how much of the control response was suppressed.

Common to all, as to format: biochemical
For one assay, the target named is T1, human recombinant MMP-1 (Homo sapiens, UniProt P03956).
T1 construct: human recombinant MMP-1 catalytic domain in each well (15.3 U, 20 μL); purchased BIOMOL AK-404
T1 sequence (P03956 100-269 limits assumed): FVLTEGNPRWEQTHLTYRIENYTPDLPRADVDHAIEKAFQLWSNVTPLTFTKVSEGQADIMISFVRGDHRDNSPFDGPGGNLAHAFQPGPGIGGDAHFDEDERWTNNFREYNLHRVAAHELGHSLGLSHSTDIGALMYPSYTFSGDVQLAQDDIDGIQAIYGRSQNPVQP
The assay can be described thus: MMP-1 colorimetric assay (BIOMOL AK-404 QuantiZyme). The method, then: FIG. 3 illustrates the results of an assay on inhibition of human recombinant MMP-1 enzyme activity by various peptide mutants. (A) MMP-1 Activity Curves: The reaction velocity (V) was determined from the slope of the OD versus time (min) plot for each test inhibitor using the linear regression analysis. (∘), Human recombinant MMP-1 purified enzyme; (□), NNGH standard positive control MMP-1 selective inhibitor; (▾), P-NT.II; (▴), D60,65E dimer; (•), PIP [57-67] dimer; (▪), PIP [59-67] dimer. (B) MMP-1 Activity Inhibition Curves: Inhibition curves of various peptide mutants against the human MMP-1 activity. Results are expressed as the mean±SD (n=3).
Inhibition of MMP-1 enzymatic activity: Enzyme inhibition by peptide analogues was assessed by using MMP-1 Colorimetric assay kit for drug discovery (BIOMOL AK-404 QuantiZyme Assay system). Briefly, human recombinant MMP-1 catalytic domain in each well (15.3 U, 20 μL) was allowed to react either with the candidate peptide (test inhibitor) dissolved in DMSO (final 0.5% DMSO in assay buffer), or with the assay buffer alone (control) for 30 min at 37° C. Immediately following incubation, the reaction was initiated by adding the thiopeptide substrate solution in assay buffer (10 μL of 100 μM Ac-PLG-[2-mercapto-4-methyl-pentanoyl]-LG-OC2H5) into each well, and the absorbance at 412 nm continuously monitored for 10 min. 1 mM Ellman's reagent [5,5′-dithiobis (2-nitrobenzoic acid] in assay buffer (50 mM HEPES, 10 mM CaCl2, 0.05% Brij-35) was used as a colour developer in this assay system. The reaction velocity (V) was determined from the slope of the OD versus time (min) plot for each test inhibitor using the linear regression analysis (Graph Pad Prism, Version 2). Inhibition (%) was then calculated using the equation, [100]−[(V inhibitor/control)×100].

In assay [1] the target is T2, purified human synovial sPLA2 (human Type IIA sPLA2) (Homo sapiens, UniProt P14555).
T2 construct: purchased Cayman Chemicals, USA
T2 sequence (P14555 21-144): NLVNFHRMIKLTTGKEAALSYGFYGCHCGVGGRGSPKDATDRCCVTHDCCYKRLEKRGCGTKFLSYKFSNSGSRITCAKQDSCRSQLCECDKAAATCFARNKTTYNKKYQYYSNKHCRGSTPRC
The assay can be described thus: sPLA2 inhibition, 3H-arachidonate-labelled E. coli membrane assay. To be noted: for inhibition at 5 µM: read-out: % Inhibition (mean ± SD).
Procedure: In brief, [^3H] arachidonate-labeled E. coli membranes (0.005 mCi/mL; 5.8 μCi/μmol, NEN) were used as substrate, and 100 mM Tris-HCl—25 mM CaCl2, pH 7.5 solution as an assay buffer. The reaction mixture contained 20 μL of substrate, 0.85 pmole of purified human synovial sPLA2 (human Type IIA sPLA2, Cayman Chemicals, USA), and an increasing concentrations of the family of synthetic peptides derived from the sequence of PIP. The final volume of the reaction mixture was adjusted to 250 μL with an assay buffer. After incubation of the mixture (37° C., 1 h) and termination of the reaction with 750 μL of chilled PBS containing 1% BSA, microfuge tubes containing the samples were centrifuged (10,000 g at 4° C. for 15 min), and 500 μL aliquots of the supernatant taken to measure the amount of [^3H]-labeled arachidonate released from the E. coli membrane using liquid scintillation counting (Multipurpose Scintillation Counter LS 6500; Beckman, USA). As controls, sPLA2 was pre-incubated with the assay buffer alone. All samples, including controls, were performed in triplicate and plotted as the percentage inhibition relative to negative controls.
A sigmoid dose response curve was generated to allow calculation of the IC50 values. All samples were performed in triplicate. Results were analyzed by nonlinear regression with GraphPad Prism (version 2.01) and expressed as the percentage of inhibition relative to control values.

Another assay has as its system collagenase I (MMP-1). The assay can be described thus: Collagenase activity assay, collagen thin film (collagen type II substrate). To be noted: collagen thin film, collagen type II; peptide concentration not given. As for the experimental part:
Collagenase activity was assayed by collagen thin film method using collagen type II as substrate. IC50 values were graphically determined from the inhibition curves, constructed on the basis of the in vitro results of collagenase assays. Results are the mean±SD of 3 separate experiments done in triplicates. (•), P-NT.II; (□), PIP [59-67] dimer; (Δ), PIP [59-67} monomer; (∇), LY 315920.
Collagenase activity assay: Using collagen thin film as the substrate, a quantitative method was established to measure the enzymatic activity of the MMPs (principally collagenase). Collagen type II (Sigma) solution (4 μL, 3 mg/mL in 0.012 N HCl) was added to each well of 96-well plates and precipitated by slowly increasing the pH with 4 μL of H2O and 8 μL of 0.012 N NaOH. The plate was dried at 23° C. for 24 hr, washed with H2O, and dried again at 23° C., resulting in a thin film containing 12 μg of collagen that was tightly bound to the bottom of the wells. Enzymatic reactions of the collagenase I (with and without peptide inhibitors) against the collagen films were carried out in quadruplicate at 24° C. for 16 h. The digested portion of the film was washed away, while the undigested portion was fixed for 3 h with 0.1% Coomassie brilliant blue R in 10% acetic acid and 45% methanol, and the wells washed and dried.

Where [2] appears, read: fixed peptide concentration (5 μM), 3H-labelled E. coli membrane assay.

Where a SMILES comes first, the peptide text is derived from it.

In the case of `CC[C@H](C)[C@H](NC(=O)[C@H](CCC(=O)O)NC(=O)[C@@H](N)C(C)C)C(=O)N[C@@H](Cc1c[nH]cn1)C(=O)N[C@H](C(=O)N[C@@H](Cc1c[nH]c2ccccc12)C(=O)N[C@@H](CCC(=O)O)C(=O)NCC(=O)N[C@H](C(=O)N[C@H](C(=O)N[C@@H](CCC(=O)O)C(=O)N[C@H](C(=O)N[C@@H](Cc1c[nH]cn1)C(=O)N[C@H](C(=O)N[C@@H](Cc1c[nH]c2ccccc12)C(=O)N[C@@H](CCC(=O)O)C(=O)NCC(=O)N[C@H](C(=O)O)C(C)C)C(C)C)[C@@H](C)CC)C(C)C)C(C)C)C(C)C` [D60,65E-PIP [59-67] dimer] (H-VEIHVWEGVVEIHVWEGV-OH; N-terminus and C-terminus assumed), the IC50 is 3740 nM on human recombinant MMP-1 and 4230 ± 670 nM in assay [1]. Also, in assay [1] (setting [2]), the inhibition at 5 µM turned out to be 68.5 ± 3.94%.

Take `CC[C@H](C)[C@H](NC(=O)[C@H](CCC(=O)O)NC(=O)[C@@H](N)C(C)C)C(=O)N[C@@H](Cc1c[nH]cn1)C(=O)N[C@H](C(=O)N[C@@H](Cc1c[nH]c2ccccc12)C(=O)N[C@@H](CCC(=O)O)C(=O)NCC(=O)N[C@H](C(=O)O)C(C)C)C(C)C` [D60,65E-PIP [59-67]] (H-VEIHVWEGV-OH; N-terminus and C-terminus assumed): the “Collagenase (% Inhibition)” value in the assay with collagenase I (MMP-1) is listed as 5.4 ± 1.8%. Moreover, in assay [1] (setting [2]), the inhibition at 5 µM was 61.4 ± 4.32%.

In the case of `CC[C@H](C)[C@H](NC(=O)[C@H](CC(=O)O)NC(=O)[C@@H](N)C(C)C)C(=O)N[C@@H](Cc1c[nH]cn1)C(=O)N[C@H](C(=O)N[C@@H](Cc1c[nH]c2ccccc12)C(=O)N[C@@H](C)C(=O)NCC(=O)N[C@H](C(=O)O)C(C)C)C(C)C` [D65A-PIP [59-67], VDIHVW (A) GV] (H-VDIHVWAGV-OH; N-terminus and C-terminus assumed), the inhibition at 5 µM in assay [1] (setting [2]) amounted to 48.5 ± 2.34%. Consider `CC[C@H](C)[C@H](NC(=O)[C@H](CC(=O)O)NC(=O)[C@@H](N)C(C)C)C(=O)N[C@@H](Cc1c[nH]cn1)C(=O)N[C@H](C(=O)N[C@@H](Cc1c[nH]c2ccccc12)C(=O)N[C@@H](CCC(=O)O)C(=O)NCC(=O)N[C@H](C(=O)O)C(C)C)C(C)C` [D65E-PIP [59-67], VDIHVW (E) GV] (H-VDIHVWEGV-OH; N-terminus and C-terminus assumed), for which, in assay [1] (setting [2]), the inhibition at 5 µM stood at 57.6 ± 3.22%. Still for that read-out and setting: with `CC[C@H](C)[C@H](NC(=O)[C@H](CC(=O)O)NC(=O)[C@@H](N)C(C)C)C(=O)N[C@@H](Cc1c[nH]cn1)C(=O)N[C@H](C(=O)N[C@@H](Cc1c[nH]c2ccccc12)C(=O)N[C@@H](CO)C(=O)NCC(=O)N[C@H](C(=O)O)C(C)C)C(C)C` [D655-PIP [59-67], VDIHVW (S) GV] (H-VDIHVWSGV-OH; N-terminus and C-terminus assumed) the figure was 52.5 ± 1.08%. As to `CC[C@H](C)[C@H](NC(=O)[C@H](Cc1ccc(O)cc1)NC(=O)[C@@H](NC(=O)CNC(=O)[C@H](CC(=O)O)NC(=O)[C@H](Cc1c[nH]c2ccccc12)NC(=O)[C@@H](NC(=O)[C@H](Cc1cnc[nH]1)NC(=O)[C@@H](NC(=O)[C@H](CC(=O)O)NC(=O)[C@@H](NC(=O)[C@H](CCCNC(=N)N)NC(=O)CNC(=O)[C@@H](N)CC(C)C)C(C)C)[C@@H](C)CC)C(C)C)C(C)C)C(=O)N[C@@H](CCCNC(=N)N)C(=O)NCC(=O)N[C@@H](CCCNC(=N)N)C(=O)O` [P-NT.II] (H-LGRVDIHVWDGVYIRGR-OH), the IC50 at human recombinant MMP-1 worked out at 1550 nM.

For `CC[C@H](C)[C@H](NC(=O)[C@H](CC(=O)O)NC(=O)[C@@H](NC(=O)[C@H](CCCNC(=N)N)NC(=O)CN)C(C)C)C(=O)N[C@@H](Cc1c[nH]cn1)C(=O)N[C@H](C(=O)N[C@@H](Cc1c[nH]c2ccccc12)C(=O)N[C@@H](CC(=O)O)C(=O)NCC(=O)N[C@H](C(=O)NCC(=O)N[C@@H](CCCNC(=N)N)C(=O)N[C@H](C(=O)N[C@@H](CC(=O)O)C(=O)N[C@H](C(=O)N[C@@H](Cc1c[nH]cn1)C(=O)N[C@H](C(=O)N[C@@H](Cc1c[nH]c2ccccc12)C(=O)N[C@@H](CC(=O)O)C(=O)NCC(=O)N[C@H](C(=O)O)C(C)C)C(C)C)[C@@H](C)CC)C(C)C)C(C)C)C(C)C` [PIP [57-67] dimer] (H-GRVDIHVWDGVGRVDIHVWDGV-OH; N-terminus and C-terminus assumed), the IC50 stood at 970 nM on human recombinant MMP-1 and 2430 ± 760 nM in assay [1]. Also, the inhibition at 5 µM in assay [1] (setting [2]) turned out to be 76.4 ± 3.87%. As to `CC[C@H](C)[C@H](NC(=O)[C@H](CC(=O)O)NC(=O)[C@@H](NC(=O)[C@@H](N)CCCNC(=N)N)C(C)C)C(=O)N[C@@H](Cc1c[nH]cn1)C(=O)N[C@H](C(=O)N[C@@H](Cc1c[nH]c2ccccc12)C(=O)N[C@@H](CC(=O)O)C(=O)NCC(=O)N[C@H](C(=O)O)C(C)C)C(C)C` [PIP [58-67]] (H-RVDIHVWDGV-OH), the “Collagenase (% Inhibition)” value in the assay on collagenase I (MMP-1) is reported as 29.4 ± 6.0%.

On to `CC[C@H](C)[C@H](NC(=O)[C@H](CC(=O)O)NC(=O)[C@@H](N)C(C)C)C(=O)N[C@@H](Cc1cnc[nH]1)C(=O)N[C@H](C(=O)N[C@@H](Cc1c[nH]c2ccccc12)C(=O)N[C@@H](CC(=O)O)C(=O)NCC(=O)N[C@H](C(=O)N[C@H](C(=O)N[C@@H](CC(=O)O)C(=O)N[C@H](C(=O)N[C@@H](Cc1cnc[nH]1)C(=O)N[C@H](C(=O)N[C@@H](Cc1c[nH]c2ccccc12)C(=O)N[C@@H](CC(=O)O)C(=O)NCC(=O)N[C@H](C(=O)O)C(C)C)C(C)C)[C@@H](C)CC)C(C)C)C(C)C)C(C)C` [PIP [59-67] dimer] (H-VDIHVWDGVVDIHVWDGV-OH), for which the IC50 on human recombinant MMP-1 turned out to be 902 nM. As to DIHVWDG [PIP [60-66], P-NT.II analogue], the “Collagenase (% Inhibition)” value with collagenase I (MMP-1) was determined as 4.7 ± 2.6%. Turning to “GRVDIHVWDGV [PIP [57-67], P-NT.II analogue]”, the “Collagenase (% Inhibition)” value in the assay on collagenase I (MMP-1) turned out to be 65.1 ± 3.3%. Consider “GRVDIHVWDGVYIRGR [PIP [57-72], P-NT.II analogue]”, for which the “Collagenase (% Inhibition)” value in the assay with collagenase I (MMP-1) is 39.8 ± 3.5%. Still for that read-out and setting: with “LGRVDIHVWDGVY [PIP [56-68], P-NT.II analogue]” the figure was 61.6 ± 7.6%. For “LGRVDIHVWDGVYI [PIP [56-69], P-NT.II analogue]”, in the assay on collagenase I (MMP-1), the “Collagenase (% Inhibition)” value is 59.8 ± 6.2%. For the compound “LGRVDIHVWDGVYIR [PIP [56-70], P-NT.II analogue]”, the “Collagenase (% Inhibition)” value with collagenase I (MMP-1) came to 60.6 ± 4.5%. Same read-out and setting: with “LGRVDIHVWDGVYIRG [PIP [56-71], P-NT.II analogue]” the figure was 62.8 ± 6.6%; with “RVDIHVWDGVYIRGR [PIP [58-72], P-NT.II analogue]”, 23.3 ± 2.9%.

In the case of VDIHVW (βD) GV [β-Asp65-PIP [59-67]], the “% Inhibition (mean ± SD)” value in assay [1] (setting [2]) was found to be 49.71 ± 3.01%. Take “VDIHVWDGVYIRGR [PIP [59-72], P-NT.II analogue]”: the “Collagenase (% Inhibition)” value in the assay with collagenase I (MMP-1) was 14.5 ± 2.4%.
